Results reported in BindingDB's records for PubMed 34792334 (n/a, 2021).

Experiments:
[1] = target: T1, Alpha-ketoglutarate-dependent dioxygenase FTO (Homo sapiens, UniProt Q9C0B1); experiment: Inhibition of FTO (unknown origin) demethylation activity using m6A7-Broccoli RNA as substrate incubated for 3 mins under shaking condition and measured after 2 hrs by fluorescence based analysis
[2] = target: T1, Alpha-ketoglutarate-dependent dioxygenase FTO; experiment: Inhibition of FTO (unknown origin) demethylation activity

T1 sequence (Q9C0B1 whole entry): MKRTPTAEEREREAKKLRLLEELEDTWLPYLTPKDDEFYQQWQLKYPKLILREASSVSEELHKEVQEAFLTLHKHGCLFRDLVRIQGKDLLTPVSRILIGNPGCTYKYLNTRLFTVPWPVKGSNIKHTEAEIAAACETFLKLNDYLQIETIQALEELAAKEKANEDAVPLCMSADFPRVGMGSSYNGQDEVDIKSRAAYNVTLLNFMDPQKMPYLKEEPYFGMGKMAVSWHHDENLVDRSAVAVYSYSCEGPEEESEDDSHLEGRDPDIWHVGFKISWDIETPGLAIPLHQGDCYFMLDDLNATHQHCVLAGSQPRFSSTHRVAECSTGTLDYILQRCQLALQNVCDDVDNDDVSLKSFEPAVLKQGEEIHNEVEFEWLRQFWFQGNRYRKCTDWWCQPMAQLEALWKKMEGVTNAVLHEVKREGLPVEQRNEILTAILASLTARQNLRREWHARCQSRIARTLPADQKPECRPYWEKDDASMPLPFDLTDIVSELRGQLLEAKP

IC50 [1] [µM] | IC50 [2] [µM] | Compound
1.2 | – | Nc1sc(-c2cncnc2)c2c1C(=O)c1ccccc1-2
– | 1.2 | CCOc1nc2ccccc2nc1C(=O)Nc1ccc(N(CC)CC)cc1
